# Reference: ChEMBL document CHEMBL1201862, “PubChem BioAssay data set” (2004)
# Counter-ions that a name gives are not always drawn. The source made the active and inactive calls.
# Assays:
# [1] = molecular target: DNA dC->dU-editing enzyme APOBEC-3A (Homo sapiens, UniProt P31941); test: A3A deaminase inhibition for selectivity – biochemical, dose response (AID 504722); format: functional
# [2] = molecular target: DNA dC->dU-editing enzyme APOBEC-3G (Homo sapiens, UniProt Q9HC16); test: Dose Response confirmation of small molecule APOBEC3G DNA Deaminase Inhibitors via a fluorescence-based single-stranded DNA deaminase assay. [Related pubchem assays (depositor defined):AID493012, AID493028]; format: functional
# [3] = molecular target: T1, Short transient receptor potential channel 4 (Mus musculus, UniProt Q9QUQ5); test: block of DAMGO-driven TRPC4 calcium entry – cell-based, HEK293 TRPC4/mu-opioid, Fluo-4 calcium, dose response (AID 434942); format: functional;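 note: potency of inhibitors blocking the TRPC4 calcium response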
# T1 sequence (Q9QUQ5 whole entry): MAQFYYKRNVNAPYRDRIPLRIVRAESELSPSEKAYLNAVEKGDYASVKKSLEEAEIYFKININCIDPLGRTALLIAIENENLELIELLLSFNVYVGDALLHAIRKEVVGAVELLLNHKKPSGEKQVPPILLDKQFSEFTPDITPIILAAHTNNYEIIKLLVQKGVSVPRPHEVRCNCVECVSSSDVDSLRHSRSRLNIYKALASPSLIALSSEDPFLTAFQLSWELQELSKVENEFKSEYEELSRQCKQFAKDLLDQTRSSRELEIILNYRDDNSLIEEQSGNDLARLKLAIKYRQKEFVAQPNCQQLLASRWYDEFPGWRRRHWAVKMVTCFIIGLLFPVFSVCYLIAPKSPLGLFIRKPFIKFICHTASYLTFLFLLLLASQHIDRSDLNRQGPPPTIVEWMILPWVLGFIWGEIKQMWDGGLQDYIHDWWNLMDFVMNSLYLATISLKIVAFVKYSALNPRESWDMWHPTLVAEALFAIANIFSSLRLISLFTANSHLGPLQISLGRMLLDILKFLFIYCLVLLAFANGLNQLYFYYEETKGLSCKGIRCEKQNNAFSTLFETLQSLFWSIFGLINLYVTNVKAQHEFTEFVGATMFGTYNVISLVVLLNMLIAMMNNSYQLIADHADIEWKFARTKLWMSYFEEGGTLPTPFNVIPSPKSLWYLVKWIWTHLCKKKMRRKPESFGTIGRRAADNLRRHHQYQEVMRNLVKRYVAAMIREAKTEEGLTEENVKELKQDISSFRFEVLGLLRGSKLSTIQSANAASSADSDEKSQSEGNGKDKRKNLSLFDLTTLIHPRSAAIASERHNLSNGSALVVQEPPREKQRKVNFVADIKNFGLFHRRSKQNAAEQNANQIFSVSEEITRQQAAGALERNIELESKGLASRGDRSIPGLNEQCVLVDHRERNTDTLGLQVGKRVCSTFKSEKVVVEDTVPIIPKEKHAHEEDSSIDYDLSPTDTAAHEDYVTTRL
# INS1 = test: INS-1E survival protection against cytokine death – cell-based, luminescence, retest, dose response (AID 449756); format: functional; settings: Rattus norvegicus;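 note: cell death triggered by IL-1 beta plus TNF-alpha plus IFN-gamma mixture; protective hits raise ATP signal compared with cytokine alone wells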
# Cytochrome P450 2C19 = Cytochrome P450 2C19 (Homo sapiens, UniProt P33261); test: Cytochrome panel assay with activity outcomes. Panel member name: p450-cyp2c19 Compounds with AC50 equal or less than 10 uM are considered active; format: functional; settings: read-out: AC50
# Cytochrome P450 2D6 = Cytochrome P450 2D6 (Homo sapiens, UniProt P10635);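 note: CYP2D6 member of a cytochrome P450 panel assay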
# Leucine aminopeptidase = molecular target: T2, Leucine aminopeptidase (Plasmodium falciparum 3D7, UniProt Q8IL11); test: P. falciparum M17LAP inhibitors, primary screen, biochemical, fluorogenic H-Leu-NHMec substrate, 1536-well (AID 1619); format: functional
# T2 sequence (Q8IL11 whole entry): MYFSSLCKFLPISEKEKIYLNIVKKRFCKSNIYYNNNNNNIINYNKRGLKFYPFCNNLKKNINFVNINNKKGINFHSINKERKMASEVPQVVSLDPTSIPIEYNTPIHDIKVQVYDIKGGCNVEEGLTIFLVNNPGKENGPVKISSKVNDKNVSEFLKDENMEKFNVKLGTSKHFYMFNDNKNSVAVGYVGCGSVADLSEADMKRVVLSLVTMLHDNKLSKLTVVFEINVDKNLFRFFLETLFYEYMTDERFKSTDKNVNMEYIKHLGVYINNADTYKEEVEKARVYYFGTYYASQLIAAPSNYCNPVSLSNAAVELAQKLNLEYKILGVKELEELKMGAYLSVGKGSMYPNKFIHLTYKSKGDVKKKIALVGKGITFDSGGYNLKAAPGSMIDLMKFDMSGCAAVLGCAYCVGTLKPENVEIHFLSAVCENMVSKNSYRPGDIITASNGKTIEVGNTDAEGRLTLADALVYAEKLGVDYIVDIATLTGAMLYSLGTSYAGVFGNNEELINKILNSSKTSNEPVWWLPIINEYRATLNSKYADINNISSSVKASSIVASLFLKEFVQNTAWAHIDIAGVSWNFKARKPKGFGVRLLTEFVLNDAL
# [4] = Luminescence Cell-Based Dose Response HTS to Identify Inhibitors of 5'UTR Stem-Loop Driven Prion Protein mRNA Translation in H4 Neuroglioblastoma Cells. [Related pubchem assays: 1827 (Project Summary), 1813 (Primary HTS)]; format: functional
# [5] = viability loss of HPDE-C7K cells – cell-based, fluorescence, HTS, primary screen (AID 431); format: functional; settings: Homo sapiens
# [6] = HPDE-C7 pancreatic duct cell viability loss – fluorescence, HTS (AID 430); format: functional, cell-based; settings: Homo sapiens
# [7] = luciferase reporter signal suppression in cells – H4 neuroglioma cells, luminescence, dose response (AID 1990); format: functional, cell-based
# [8] = molecular target: T3, DNA repair protein RAD52 homolog (Homo sapiens, UniProt P43351); format: functional, biochemical
# T3 sequence (P43351 whole entry): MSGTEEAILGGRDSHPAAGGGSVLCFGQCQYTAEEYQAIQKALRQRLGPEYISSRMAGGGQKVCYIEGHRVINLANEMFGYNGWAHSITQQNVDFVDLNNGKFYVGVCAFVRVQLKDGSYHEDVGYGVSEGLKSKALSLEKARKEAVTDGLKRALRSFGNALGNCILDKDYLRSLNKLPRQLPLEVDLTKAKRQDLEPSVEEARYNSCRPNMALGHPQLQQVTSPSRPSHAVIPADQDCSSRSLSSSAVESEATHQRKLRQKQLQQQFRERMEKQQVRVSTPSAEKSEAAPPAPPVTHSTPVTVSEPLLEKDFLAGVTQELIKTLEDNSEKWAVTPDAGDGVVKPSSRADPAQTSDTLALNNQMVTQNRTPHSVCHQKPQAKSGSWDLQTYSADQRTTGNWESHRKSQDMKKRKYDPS
# [9] = alpha-synuclein stem-loop luciferase translation blockers – H4 neuroglioma cells, luminescence, confirmation (AID 1988); format: functional, cell-based
# [10] = viability of HCT116 lacking mutant beta-catenin – cell-based, human colon tumor, dose response (AID 1045); format: functional;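 note: HCT116 colon tumor cells with beta catenin knocked out; cells exposed to compound for 60 hours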
# [11] = viability of PTEN-deleted HCT116 cells – cell-based, HCT116 PTEN knockout, dose response (AID 1047); format: functional;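 note: HCT116 colon tumor cells with PTEN knocked out; cells exposed to compound for 60 hours before readout; potency for loss of cell viability measured by luminescence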
# [12] = molecular target: Glyceraldehyde-3-phosphate dehydrogenase (Homo sapiens, UniProt P04406)
# [13] = A cytotoxicity screen of small molecule inhibitors of the PhoP region in Salmonella typhi identified in the primary screen. [Related pubchem assays: 1850, 1864, 1985 ]; format: functional
# [14] = Luminescence Cell-Based Dose Retest to Confirm Inhibitors of Cancer Stem Cells. [Related pubchem assays (depositor defined):AID2717, AID2721]; format: functional; settings: Homo sapiens
# [15] = P. falciparum Dd2 growth inhibitors, dose response, SYBR Green, cherry-picked samples (AID 1159567); format: functional, cell-based
# Vero [16] = test: cells; format: functional; settings: Chlorocebus sabaeus
# Vero [17] = test: cells; format: functional, cell-based; settings: Chlorocebus sabaeus
# [18] = viability of uninfected HEp-2 cells – cell-based, HTS, cytotoxicity control for RSV inhibitor project, dose response (AID 2410); format: functional; settings: human respiratory syncytial virus
# [19] = test system: Streptococcus sp. 'group A'; test: Streptococcus pyogenes SK(-)GAS viability under kanamycin – luminescence, BacTiterGlo, confirmation, counter-screen for streptokinase expression inhibitor project, dose response (AID 1900); format: functional, organism-based
# Streptokinase A = molecular target: T4, Streptokinase A (Streptococcus pyogenes serotype M1, UniProt P10520); test: viability-normalized secreted streptokinase activity reduction – plasminogen activation absorbance, OD405, dose response (AID 1914); format: functional, Streptococcus pyogenes M1 GAS;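 note: secreted streptokinase activity via plasminogen activation per viability signal from cell pellet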
# T4 sequence (P10520 whole entry): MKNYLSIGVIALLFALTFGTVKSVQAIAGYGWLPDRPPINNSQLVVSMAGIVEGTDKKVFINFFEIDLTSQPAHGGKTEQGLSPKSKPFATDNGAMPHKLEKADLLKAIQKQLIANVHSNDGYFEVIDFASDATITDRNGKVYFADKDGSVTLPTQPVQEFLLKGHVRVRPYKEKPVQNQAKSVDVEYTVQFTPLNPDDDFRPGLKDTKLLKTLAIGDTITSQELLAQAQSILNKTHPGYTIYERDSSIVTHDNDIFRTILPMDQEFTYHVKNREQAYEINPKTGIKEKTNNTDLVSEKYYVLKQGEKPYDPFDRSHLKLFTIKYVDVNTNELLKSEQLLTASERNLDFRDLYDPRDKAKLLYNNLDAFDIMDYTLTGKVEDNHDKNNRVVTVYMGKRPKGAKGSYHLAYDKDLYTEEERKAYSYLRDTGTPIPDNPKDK
# Streptococcus = test: GAS UMAA2166 growth inhibition – luminescence, BacTiterGlo, counter-screen for streptokinase expression inhibitor project, dose response (AID 1915); format: functional, organism-based;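 note: potency for reduction of bacterial viability or growth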
# DNA dC->dU-editing enzyme APOBEC-3G, sequence (Q9HC16 whole entry): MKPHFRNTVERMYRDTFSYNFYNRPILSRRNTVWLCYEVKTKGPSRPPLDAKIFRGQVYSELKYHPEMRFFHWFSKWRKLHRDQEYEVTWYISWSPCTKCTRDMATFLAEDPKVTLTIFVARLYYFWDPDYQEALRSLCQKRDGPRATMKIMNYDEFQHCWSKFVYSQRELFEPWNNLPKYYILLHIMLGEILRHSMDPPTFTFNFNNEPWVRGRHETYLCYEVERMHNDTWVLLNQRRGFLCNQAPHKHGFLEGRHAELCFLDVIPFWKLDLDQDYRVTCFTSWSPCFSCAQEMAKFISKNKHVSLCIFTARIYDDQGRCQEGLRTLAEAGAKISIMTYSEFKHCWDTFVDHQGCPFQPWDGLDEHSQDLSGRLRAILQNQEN
# DNA dC->dU-editing enzyme APOBEC-3A, sequence (P31941 whole entry): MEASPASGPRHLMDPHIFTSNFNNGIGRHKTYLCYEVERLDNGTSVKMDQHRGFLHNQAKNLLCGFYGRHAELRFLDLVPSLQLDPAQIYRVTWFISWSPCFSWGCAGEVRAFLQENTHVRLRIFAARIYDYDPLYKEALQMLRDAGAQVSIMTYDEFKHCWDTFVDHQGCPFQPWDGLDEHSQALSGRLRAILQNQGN
# Cytochrome P450 2D6, sequence (P10635 whole entry): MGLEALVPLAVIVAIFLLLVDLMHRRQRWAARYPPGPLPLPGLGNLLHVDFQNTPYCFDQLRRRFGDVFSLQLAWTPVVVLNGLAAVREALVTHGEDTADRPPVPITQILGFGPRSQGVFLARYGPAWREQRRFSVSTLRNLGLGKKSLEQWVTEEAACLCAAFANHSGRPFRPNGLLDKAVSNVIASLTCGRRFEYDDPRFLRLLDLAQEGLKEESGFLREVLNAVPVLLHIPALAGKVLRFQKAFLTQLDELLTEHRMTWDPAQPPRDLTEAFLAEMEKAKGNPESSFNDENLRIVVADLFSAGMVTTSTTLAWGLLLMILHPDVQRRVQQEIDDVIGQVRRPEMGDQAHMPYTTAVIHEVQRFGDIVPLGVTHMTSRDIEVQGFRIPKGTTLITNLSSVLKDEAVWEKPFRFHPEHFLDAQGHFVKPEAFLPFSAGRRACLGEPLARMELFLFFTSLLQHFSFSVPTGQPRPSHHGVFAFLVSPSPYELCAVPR
# Glyceraldehyde-3-phosphate dehydrogenase, sequence (P04406 whole entry): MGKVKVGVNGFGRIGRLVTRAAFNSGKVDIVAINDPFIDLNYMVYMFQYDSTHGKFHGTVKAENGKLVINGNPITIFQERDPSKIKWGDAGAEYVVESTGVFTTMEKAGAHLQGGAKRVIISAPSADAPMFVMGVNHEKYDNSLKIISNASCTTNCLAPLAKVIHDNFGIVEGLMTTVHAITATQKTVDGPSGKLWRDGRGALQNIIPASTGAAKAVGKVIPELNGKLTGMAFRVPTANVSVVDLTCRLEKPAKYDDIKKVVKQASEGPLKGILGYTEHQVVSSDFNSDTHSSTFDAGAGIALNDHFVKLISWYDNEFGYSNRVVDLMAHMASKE
# Cytochrome P450 2C19, sequence (P33261 whole entry): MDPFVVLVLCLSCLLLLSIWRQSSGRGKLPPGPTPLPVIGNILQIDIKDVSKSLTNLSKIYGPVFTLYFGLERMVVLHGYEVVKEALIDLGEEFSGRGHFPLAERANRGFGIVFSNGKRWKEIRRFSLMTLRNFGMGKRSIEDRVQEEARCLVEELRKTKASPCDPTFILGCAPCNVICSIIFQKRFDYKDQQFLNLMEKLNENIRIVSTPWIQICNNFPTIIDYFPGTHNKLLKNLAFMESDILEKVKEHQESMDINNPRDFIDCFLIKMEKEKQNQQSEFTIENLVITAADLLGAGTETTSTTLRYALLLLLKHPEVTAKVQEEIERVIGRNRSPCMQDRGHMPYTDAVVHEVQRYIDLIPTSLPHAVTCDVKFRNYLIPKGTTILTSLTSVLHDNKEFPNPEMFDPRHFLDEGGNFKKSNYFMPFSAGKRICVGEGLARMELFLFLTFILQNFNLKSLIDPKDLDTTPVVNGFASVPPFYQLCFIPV
smiles,measurement,setting,value
N#CC1=C2SCN(c3ccccc3)CN2C(=O)CC1c1cccs1 (centres undefined),IC50,[1],> 100 µM (inactive)
same,IC50,[2],7.25 µM (active)
COc1ccc(C(=O)N/C(=C/c2cccs2)c2nc3ccccc3[nH]2)cc1OC,IC50,cells,22.6 µM (active)
Brc1ccccc1CN1CCN(Cc2c[nH]c3ccccc23)CC1,EC50,[3],0.0747 µM (active)
same,AC50,INS1,2.16 µM (active)
CCc1nnc(NS(=O)(=O)c2ccc(/N=C/c3c(C)nn(-c4ccc(C)cc4)c3O)cc2)s1,AC50,Cytochrome P450 2C19,5.01 µM (inconclusive)
same,AC50,Cytochrome P450 2D6,5.62 µM (inconclusive)
same,IC50,Leucine aminopeptidase,8.11 µM (active)
CSc1ccc2c(c1)N(CCC1CCCCN1C)c1ccccc1S2 (centres undefined) [THIORIDAZINE HYDROCHLORIDE],EC50,[4],> 60 µM (not active)
same,EC50,[5],3.43 µM (active)
same,EC50,[6],8.18 µM (active)
same,EC50,[7],> 120 µM (not active)
same,AC50,[8],13.7 µM (active)
same,EC50,[9],> 120 µM (not active)
same,EC50,[10],9.28 µM (active)
same,EC50,[11],11.1 µM (active)
O=C(O)c1cc(N2C(=O)C3C4c5ccccc5C(c5ccccc54)C3C2=O)ccc1O (centres undefined),IC50,[12],> 100 µM (not active)
COc1ccc(N(CC(=O)N2c3ccccc3CC2C)S(=O)(=O)c2c(C)noc2C)cc1 (centres undefined),EC50,[13],> 50 µM (active)
N#CC1=C(SCC(=O)c2ccc(Cl)cc2)N=C2CCCC(O)=C2C1c1ccco1 (centres undefined),EC50,[5],7.7 µM (active)
same,EC50,[6],7.64 µM (active)
same,AC50,[14],2.64 µM (active)
Oc1cc(O)c2sc3nc(-c4cccnc4)cc(C(F)(F)F)c3c2n1,IC50,Leucine aminopeptidase,58.2 µM (active)
O=C(C1CCOCC1)N1[C@H](CO)[C@@H](c2ccccc2)C12CN(Cc1cccc(Cl)c1)C2,AC50,[15],5.41 µM (active)
Cc1cc(C)c(CSc2ncnc3[nH]cnc23)c(C)c1,EC50,[13],> 50 µM (active)
Cc1c(NC(=O)CN2C(=O)NC3(CCCCC3C)C2=O)cccc1[N+](=O)[O-] (centres undefined),IC50,cells,11.6 µM (active)
CC(=O)/C(C#N)=C1\NC(=O)C(Cc2ccccc2C)S1 (centres undefined),CC50,Vero [16],> 25 µM (active)
same,IC50,Vero [17],5.5 µM (active)
same,IC50,cells,2.54 µM (active)
same,CC50,[18],5.95 µM (active)
Cn1c(C(=O)NCc2ccccc2)cc2oc3ccccc3c21,CC50,Vero [16],> 25 µM (active)
same,IC50,Vero [17],1.87 µM (active)
same,IC50,cells,7.04 µM (active)
same,CC50,[18],28.9 µM (active)
CCOc1ccc(N(Cc2cc3cc(OC)ccc3nc2O)S(C)(=O)=O)cc1,EC50,[5],> 20 µM (not active)
same,EC50,[6],> 20 µM (not active)
CCn1c(-c2cccc(Cl)c2)n[nH]c1=S,IC50,[1],> 100 µM (inactive)
same,IC50,[2],6.09 µM (active)
Cc1ccc(-c2n[nH]c(=S)n2C)cc1Cl,IC50,[1],> 100 µM (inactive)
same,IC50,[2],4.34 µM (active)
CCCCC[C@H](O)/C=C/[C@H]1C=CC(=O)[C@@H]1C/C=C\CCCC(=O)O [PROSTAGLANDIN A2],EC50,[5],> 20 µM (not active)
same,EC50,[6],> 20 µM (not active)
COc1cccc(NC(=O)N2CCCC(C(=O)Nc3ccccc3OC)C2)c1 (centres undefined),EC50,[13],> 50 µM (active)
CCOC(=O)C1=NN(c2ccccc2C)C2=NC(C)=C(C(=O)OC)C(c3cccc(OC)c3)N12 (centres undefined),EC50,[3],2.99 µM (active)
CC(=O)/C(C#N)=C1\NC(=O)C(Cc2ccccc2Cl)S1 (centres undefined),CC50,Vero [16],18.9 µM (active)
same,IC50,Vero [17],2.83 µM (active)
same,IC50,Leucine aminopeptidase,26.6 µM (active)
CSc1ncccc1C(=O)Nc1nc(C(C)(C)C)cs1,IC50,cells,4.75 µM (active)
same,CC50,[18],49.6 µM (active)
Sc1nnc(-c2cccnc2)n1/N=C/c1ccccc1,IC50,[1],> 100 µM (inactive)
same,IC50,[2],2.02 µM (active)
O=C(Cc1cccs1)NNC(=S)NC(=O)c1ccccc1,EC50,[19],4.36 µM (active)
same,EC50,Streptokinase A,> 150 µM (not active)
same,IC50,Leucine aminopeptidase,30 µM (active)
same,EC50,Streptococcus,16.9 µM (active)
